Patent US12344623B2, “Thiazolopyridine derivatives as adenosine receptor antagonists” (Merck Patent GmbH, priority 2019, dated 2025)

Assays:
Assay type in all cases: cell-based
[1] = target: T1, human A2B receptor (Homo sapiens, UniProt P29275); assay: Functional A2B receptor activity, recombinant HEK293 cells, cAMP (HTRF), agonist NECA; details: read-out: Functional A2B receptor activity, HEK293, cAMP, IC50
T1 construct: expressed in transfected cells; host or cells: HEK293
T1 sequence (P29275 1-332): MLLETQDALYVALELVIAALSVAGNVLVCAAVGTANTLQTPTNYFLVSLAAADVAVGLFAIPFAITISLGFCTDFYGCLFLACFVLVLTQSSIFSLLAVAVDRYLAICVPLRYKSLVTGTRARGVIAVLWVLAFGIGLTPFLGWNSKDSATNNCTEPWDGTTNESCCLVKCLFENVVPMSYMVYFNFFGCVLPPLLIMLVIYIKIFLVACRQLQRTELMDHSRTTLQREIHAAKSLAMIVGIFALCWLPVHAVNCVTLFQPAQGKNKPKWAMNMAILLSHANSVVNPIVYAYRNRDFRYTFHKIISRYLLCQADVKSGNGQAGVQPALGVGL
Summary of the method: (§1)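 Cells were seeded, then treated with forskolin, test compound and agonist. After a 30 min incubation, HTRF detection reagents were added and intracellular cAMP was read. Values were scaled between an inhibitor control and DMSO before fitting.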

[2] = target: T2, human A1 receptor (Homo sapiens, UniProt P30542); assay: Functional A1 receptor activity, recombinant CHO cells, cAMP (HTRF), forskolin, agonist CPA; details: recombinant CHO cells, forskolin, agonist CPA; read-out: Functional A1 receptor activity, CHO, cAMP, IC50
T2 construct: expressed in transfected cells; host or cells: CHO
T2 sequence (P30542 1-326): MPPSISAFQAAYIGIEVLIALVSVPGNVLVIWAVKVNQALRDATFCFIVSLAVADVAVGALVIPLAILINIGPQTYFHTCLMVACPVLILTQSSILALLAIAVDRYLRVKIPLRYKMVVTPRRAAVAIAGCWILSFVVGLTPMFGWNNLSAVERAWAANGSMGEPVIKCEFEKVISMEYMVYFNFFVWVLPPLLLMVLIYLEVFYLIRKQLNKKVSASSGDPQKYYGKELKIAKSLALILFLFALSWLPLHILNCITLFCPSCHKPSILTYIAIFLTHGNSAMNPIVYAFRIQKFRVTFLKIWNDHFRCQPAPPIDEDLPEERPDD
Summary of the method: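 Recombinant CHO lines carrying either receptor receive forskolin, compound and the matching agonist, CPA or IB-MECA. After 30 min, HTRF reagents are added and cAMP is quantified. Values are normalized to inhibitor and neutral DMSO controls, then fitted.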

[3] = test system: mouse Pan T cells; assay: mTcell assay, cAMP, agonist NECA; details: mouse Pan T cells, agonist NECA 1 uM
Summary of the method: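 Mouse splenic Pan T cells, pre-activated 48 hours with anti-CD3/CD28 beads, then plated at 50,000 cells/well in serum-free medium with 0.1% BSA. Compounds tested in 10-point dose response from 10 uM; after 30 minutes at 37° C, cAMP measured by HTRF.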

[4] = target: human A2A receptor (Homo sapiens, UniProt P29274); assay: Functional A2A receptor activity, recombinant HEK293 cells, cAMP (HTRF), agonist NECA; set-up: expressed in transfected cells; host or cells: HEK293; details: read-out: Functional A2A receptor activity, HEK293, cAMP, IC50
Chain of human A2A receptor (P29274 whole entry): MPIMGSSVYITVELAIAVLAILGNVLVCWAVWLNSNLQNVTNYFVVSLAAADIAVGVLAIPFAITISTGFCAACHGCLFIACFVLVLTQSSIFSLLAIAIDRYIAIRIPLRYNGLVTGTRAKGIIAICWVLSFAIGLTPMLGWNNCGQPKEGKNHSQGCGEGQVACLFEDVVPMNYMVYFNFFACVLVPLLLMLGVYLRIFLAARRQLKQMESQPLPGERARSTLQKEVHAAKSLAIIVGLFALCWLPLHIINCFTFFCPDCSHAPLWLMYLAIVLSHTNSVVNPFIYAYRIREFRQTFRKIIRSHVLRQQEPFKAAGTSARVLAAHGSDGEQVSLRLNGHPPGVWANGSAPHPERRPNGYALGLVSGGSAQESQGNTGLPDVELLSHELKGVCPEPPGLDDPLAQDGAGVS
Summary of the method: as §1

- IC50 [1]: < 10 nM
- IC50 [2]: > 1000 nM
- IC50 [3]: < 10 nM
- IC50 [4]: < 10 nM
SMILES: COc1ncc(C2=CCOCC2)c2sc(NC(=O)N3CC[C@@]4(CCCOC4)C3)nc12 [Compound 25, (S)-7-Oxa-2-aza-spiro[4.5]decane-2-carboxylic acid [7-(3,6-dihydro-2H-pyran-4-yl)-4-methoxy-thiazolo[4,5-c]pyridin-2-yl]-amide]
